From PMC4801207, “Characterisation of Signalling by the Endogenous GPER1 (GPR30) Receptor in an Embryonic Mouse Hippocampal Cell Line (mHippoE-18)” (PLoS ONE, 2016)

target: T1, GPER1 (GPR30) (Mus musculus, UniProt Q8BMP4); experiment: cAMP accumulation, radiometric PKA binding assay, mHippoE-18 cells; assay type: cell-based; conditions: agonist; potentiation of 10 μM forskolin-stimulated cAMP, 100 μM IBMX, 20 min; endogenous receptor, no antagonist
T1 construct: full-length endogenous receptor, native in mHippoE-18 immortalized embryonic mouse hippocampal cell line (CELLutions Biosystems); cells also express moderate ERalpha and ERbeta
T1 sequence (Q8BMP4 1-375): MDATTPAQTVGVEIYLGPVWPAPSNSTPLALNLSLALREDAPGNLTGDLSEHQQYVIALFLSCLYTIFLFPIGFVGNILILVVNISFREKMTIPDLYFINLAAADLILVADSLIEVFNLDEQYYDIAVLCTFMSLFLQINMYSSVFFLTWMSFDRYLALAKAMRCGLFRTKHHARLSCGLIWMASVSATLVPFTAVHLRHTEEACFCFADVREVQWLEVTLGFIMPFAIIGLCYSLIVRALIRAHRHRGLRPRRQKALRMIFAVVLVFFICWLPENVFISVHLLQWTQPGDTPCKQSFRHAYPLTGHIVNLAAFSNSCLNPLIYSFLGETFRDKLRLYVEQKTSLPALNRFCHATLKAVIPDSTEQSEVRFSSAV

EC50 | Compound
0.52 nM | CC(=O)c1ccc2c(c1)[C@H]1C=CC[C@H]1[C@@H](c1cc3c(cc1Br)OCO3)N2 (racemic) [G1]
1.1 nM | C[C@]12CC[C@@H]3c4ccc(O)cc4CC[C@H]3[C@@H]1CC[C@@H]2O [17β-Estradiol]
3.6 nM | C[C@]12CC[C@@H]3c4ccc(O)cc4C[C@@H](CCCCCCCCC[S+]([O-])CCCC(F)(F)C(F)(F)F)[C@H]3[C@@H]1CC[C@@H]2O (stereo partly drawn) [ICI 182,780, 7α, 17β-[9-[(4,4,5,5,5-Pentafluoropentyl)sulfinyl]nonyl]estra-1,3,5(10)-triene-3,17-diol]
